Reference: patent publication US10980851B2, “Topical skincare compositions comprising Centella asiatica selected triterpenes” (The Procter & Gamble Company, priority 2018, dated 2021)

Test system: gene expression in tert keratinocytes
Test: Signature free connectivity mapping (C-map) similarity to CAST
Settings: Concentration Tested 0.01% (wt. %); Fisher Discriminant Analysis
Excerpt: Signature Free Method of Querying Perturbagens Using Connectivity Mapping to Test Similarity Among Different Varieties of Perturbagens
The signature-free query method describes methodologies for identifying gene expression similarities among different perturbagens, such as cosmetic actives and/or natural extracts in an already existing tert connectivity map database. “Connectivity map” and “C-map” refer broadly to devices, systems, articles of manufacture, and methodologies for identifying relationships between cellular phenotypes or cosmetic conditions, gene expression, and perturbagens, such as cosmetic actives. […]
The tert C-map database consists of normalized gene expression data of approximately 3200 perturbagens. […] For each individual perturbagen, the output of the normalization includes an expression value for each probe analyzed in the gene expression profiling experiment. […]
The data matrix is analyzed using multivariate statistical analysis. Though described herein with reference to regularized Fisher Discriminant Analysis using a kernel version of the projection matrix, those of ordinary skill in the art will readily appreciate that other forms of multivariate statistical analysis may be employed in other embodiments. […]

Compound | Similarity (distance) Score from CAST
C[C@H]1[C@H](C)CC[C@]2(C(=O)O)CC[C@]3(C)C(=CC[C@@H]4[C@@]5(C)C[C@@H](O)[C@H](O)[C@@](C)(CO)[C@@H]5[C@H](O)C[C@]43C)[C@H]12 [Madecassic acid] | 0.770
Madecassoside | −0.031
